The values that follow come from patent US5574070A, “Substituted guanidines having high binding to the sigma receptor and the use thereof” (priority 1993, dated 1996).

Where a name gives a salt, the structure may show the parent alone. Read-outs that look alike come from different tables or passages of the source. Some results are limits rather than exact numbers.

Data set [1] deals with sigma receptor. Kind of data set: [3H]DTG displacement radioligand binding assay, guinea pig brain membranes.
Data set [2] has as its target [3H]MK-801. Kind of data set: [3H]MK-801 displacement binding. Particulars: read-out: IC50 vs [3H]MK-801; Table II; ± s.e.m. (n).
In data set [3] the test system is rats trained to discriminate cyclazocine. The conditions noted are these: same concentrations; Holtzman, private communication; cited from earlier work.
The subject of data set [4] is PCP receptor. Particulars: Tam, personal communication; cited from earlier work.
For data set [5], the system named is anxiety behavior of mice. Kind of data set: black:white test box (light/dark exploration) of mice.
Data set [6] deals with T1, sigma receptor from guinea pig brain (Cavia porcellus, UniProt Q60492).
T1 construct: from tissue; host or cells: guinea pig brain membranes
T1 sequence (Q60492 whole entry): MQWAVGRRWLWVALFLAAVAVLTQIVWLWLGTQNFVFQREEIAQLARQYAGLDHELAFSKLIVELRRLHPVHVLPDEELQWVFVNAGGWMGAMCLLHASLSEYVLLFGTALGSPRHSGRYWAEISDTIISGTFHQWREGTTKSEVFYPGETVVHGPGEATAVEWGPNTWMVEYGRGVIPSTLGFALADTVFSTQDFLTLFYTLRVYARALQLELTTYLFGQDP
Kind of data set: [3H]AZ-DTG binding and photoaffinity labeling of the sigma receptor. The conditions noted are these: 10 uM. As to the method:
The filters were then irradiated with long-wavelength UV light for a 15 minute period. Filter-bound proteins were solubilized with 50 mM Tris pH 7.4, 0.1% sodium dodecyl sulfate. Solubilized proteins were subjected to SDS-polyacrylamide gel electrophoresis.

Data set [7] concerns the target sigma receptor (Cavia porcellus, UniProt Q60492). Kind of data set: biochemical.
For data set [8], the system named is sigma receptor. Kind of data set: (+)[3H]3-PPP saturation binding, guinea pig brain membranes.
Description: For radioreceptor assays aliquots of the frozen membrane suspension were thawed and diluted tenfold with 50 nM Tris/HCl buffer, pH 7.4. […] The protein concentration in the 1 ml final incubation volume was 800 ug, corresponding to 32 mg of brain tissue (original wet weight). […] After incubation for 90 minutes at room temperature the membrane suspension was rapidly filtered under vacuum through Whatman GF/B glass fiber filters using a Brandel 48 well cell harvester (Brandel, Gaithersburg, Md.). […] The filters were dissolved in 10 ml each of Cytoscint (Westchem Products, San Diego, Calif.) and radioactivity was measured by liquid scintillation spectrometry at a counting efficiency of 35-50%.
The subject of data set [9] is social interaction of rats. Kind of data set: rat social interaction test. The data set is classed as in vivo, rat (male Hooded Lister).
Excerpt: A second preferred animal model is the rat social interaction test described by Jones, B. J. et al., supra, wherein the time that two mice spend in social interaction is quantified. […] Both the familiarity and the light level of the test arena may be manipulated. Undrugged rats show the highest level of social interaction when the test arena is familiar and is lit by low light. Social interaction declines if the arena is unfamiliar to the rats or is lit by bright light. Anxiolytic agents prevent this decline. The overall level of motor activity may also be measured to allow detection of drug effects specific to social behaviors.
Male Hooded Lister rats (Glaxo bred, 200-250 g), were housed 5 to a cage and were kept in the laboratory environment for at least a week before testing. Rats paired in the test were taken from separate cages.
The test arena consisted of an open-topped box, 62×62×33 cm with a 7×7 matrix of infra-red photocell beams in the walls, 2.5 cm from the floor.
Testing involved placing each member of a pair of rats in opposite comers of the arena and then leaving them undisturbed for 10 min. while recording their behavior remotely on videotape. The behavioral assessments were made subsequently from the recordings. The time spent in social interaction was measured and expressed as a cumulative total for the 10 min session. The behaviors that comprised social interaction were: following with contact, sniffing (but not sniffing of the hindquarters), crawling over and under, tumbling, boxing and grooming.
Where [10] appears, read: list of especially preferred compounds, read-out: IC50 (high binding to the sigma receptor).
[11] abbreviates: read-out: IC50 vs [3H]DTG, Table II, ± s.e.m. (n).
Where [12] appears, read: Example 25, guinea pig brain membrane homogenates, read-out: IC50 binding values.
[13] abbreviates: read-out: IC50 vs [3H]DTG, Table I, guinea pig brain membranes.

sigma receptor (Cavia porcellus, UniProt Q60492), sequence (Q60492 whole entry): as above

As for `N=C(Nc1ccccc1C(F)(F)F)NC12CC3CC(CC(C3)C1)C2` [N-(Adamantan-1-yl)-N'-(2-trifluoromethylphenyl)guanidine], the IC50 (in general, the point on the concentration scale where inhibition reaches its midpoint) in data set [1] (setting [10]) stood at 7.44 nM; in [1] (setting [11]), 7.44 nM; in [2], 23100 nM.

In the case of `N=C(Nc1cccc2ccc(=O)oc12)NC12CC3CC(CC(C3)C1)C2` [N-(Adamantan-1-yl)-N'-(8-coumarinyl)-guanidine], the IC50 was 43.9 nM in data set [1] (setting [11]) and 6700 nM in [2].

`Cc1ccccc1NC(=N)Nc1ccccc1C` [DTG, N,N'-di-(2-methylphenyl)guanidine]: the “in vitro [3H]DTG displacement activity” value in [1] was “found to possess the aforesaid in vitro [^3 H]DTG displacement activity”. The substitution for cyclazocine entry in data set [3] is “fully substitutable for cyclazocine”. The “activity in [3H]-PCP binding assay” value in data set [4] was “virtually inactive”. Moreover, the anxiolytic activity result in data set [5] (s.c.) is on record as “does not exhibit anxiolytic activity”. The “rears, crossings, % time in the black compartment” value in data set [5] (s.c., concentrations tested) is recorded as “did not affect significantly”.

For the compound `Cc1cc(Br)ccc1NC(=N)NC1CCCCC1` [N-Cyclohexyl-N'-(2-methyl-4-bromophenyl)guanidine], the “in vitro [3H]DTG displacement activity” value in data set [1] was “found to possess the aforesaid in vitro [^3 H]DTG displacement activity”. The half-maximal inhibitory concentration (IC50) in data set [1] (setting [12]) was determined as 5.5 nM; in [1] (setting [10]), 5.5 nM; in [1] (setting [11]), 4.67 nM; in data set [2] it was 23900 nM.

Take `NCCCC(=O)O` [GABA, γ-aminobutyric acid, reference compound]: the “displacement of [3H]DTG” value in [1] (10 uM) is “no significant displacement”. The “effect on [3H]AZ-DTG labeling of the 29 kD polypeptide” value (from here on “effect on [3H]AZ-DTG labeling”) in data set [6] is on record as “unaffected”.

For the compound `CCCN1CCCC(c2cccc(O)c2)C1` (single isomer, unassigned; (+)) [(+)3-PPP, 3-(3-hydroxyphenyl)-N-(1-propyl)-piperidine, reference compound], the “effect on [3H]AZ-DTG labeling” value in data set [6] is given as “completely blocked”. In [7], this compound yielded an IC50 of 33 ± 12 nM.

In the case of `N=C(Nc1ccc(F)cc1F)NC12CC3CC(CC(C3)C1)C2` [N-(Adamantan-1-yl)-N'-(2,4-difluorophenyl)guanidine], the IC50 is 8.92 nM in data set [1] (setting [10]), 8.92 nM in [1] (setting [11]) and greater than 10000 nM in data set [2].

With `NCCc1c[nH]c2ccc(O)cc12` [5-OH-tryptamine, reference compound], in [1] (10 uM), the “displacement of [3H]DTG” value was “no significant displacement”. Also, the “effect on [3H]AZ-DTG labeling” value in data set [6] is given as “unaffected”.

On to `N=C(Nc1cccc2c1CCC2)Nc1cccc2c1CCC2` [N,N'-Di-(4-indanyl)-guanidine], for which the concentration for half-maximal inhibition (IC50) in data set [1] (setting [10]) was found to be 28.5 nM; in [1] (setting [11]), 28.5 nM; in data set [2], 506 nM.

Turning to `N=C(Nc1ccc2oc(=O)ccc2c1)NC12CC3CC(CC(C3)C1)C2` [N-(Adamantan-1-yl)-N'-(6-coumarinyl)-guanidine], the results for the IC50 in data set [1] (setting [10]), in data set [1] (setting [11]) and in data set [2] were 21.9 nM, 21.9 nM and greater than 10000 nM, respectively.

For `N=C(Nc1ccccc1I)Nc1cccc2ccccc12` [N-(1-Naphthyl)-N'-(2-iodophenyl)-guanidine], the IC50 was 40.1 nM in [1] (setting [10]), 40.1 nM in data set [1] (setting [11]) and 209 nM in [2].

Consider `N=C(Nc1ccccc1)Nc1ccccc1` [DPG, N,N'-di(phenyl)guanidine], for which the substitution for cyclazocine entry in data set [3] was “fully substitutable for cyclazocine”.

Take `CCCN1CCC[C@H](c2cccc(O)c2)C1` [(+)[^3 H]3-PPP, (+)[^3 H]3-(3-hydroxyphenyl)-N-(1-propyl)-piperidine]: in [8], the Bmax was found to be 80 pmol/g fresh brain weight and the Kd (in general, the concentration at which binding is half-saturated) stood at 30 nM.

For `N=C(NC1CCCCC1)NC12CC3CC(CC(C3)C1)C2` [AdChG, N, Adamantan-1-yl-N'-cyclohexylguanidine HCl], the “in vitro [3H]DTG displacement activity” value in [1] is “found to possess the aforesaid in vitro [^3 H]DTG displacement activity”. In addition, in [1] (setting [12]), the half-maximal inhibitory concentration (IC50) amounted to 12.5 ± 2.2 nM. In addition, the IC50 in data set [1] (setting [10]) stood at 12.5 nM. In addition, the IC50 in data set [1] (setting [13]) was 13 ± 2 nM. In data set [5] (s.c.), the “latency to entering the dark compartment” value is given as “dose-dependent increase in the latency to entering the dark compartment”; the “numbers of line crossings and/or rears in the light compartment (vs dark)” value (from here on “numbers … (vs dark)”) was “increase in the number of rears in the light compartment”; the “sedation: total numbers of rears and line crossings” value (from here on “sedation: total numbers”) is “did not change significantly, showing that the drug was not sedative”.

On to `Cl.N=C(Nc1ccccc1I)NC12CC3CC(CC(C3)C1)C2` [AdIpG, N-(Adamantan-1-yl)-N'-(2-iodophenyl)guanidine HCl], for which the “in vitro [3H]DTG displacement activity” value in data set [1] is “found to possess the aforesaid in vitro [^3 H]DTG displacement activity”. Also, the IC50 in data set [1] (setting [12]) was 6.2 ± 0.7 nM. Further, the IC50 in data set [1] (setting [10]) is 6.2 nM. The 50% inhibitory concentration (IC50) in data set [1] (setting [13]) amounted to 5 ± 1 nM. Also, in data set [5] (oral), the “latency to entering the dark compartment” value was “increase in the latency to entering the dark compartment”; the “numbers … (vs dark)” value was “increase in the numbers of line crossings and rears in the light compartment”; the “sedation: total numbers” value was “did not decrease significantly”. Also, the anxiolytic activity result in [5] (oral, 1 mg/kg) is on record as “have anxiolytic activity when orally administered”. For the same compound, in [5] (s.c.), the “latency to entering the dark compartment” value is on record as “increased in a dose-dependent manner”; the “numbers … (vs dark)” value was “increased at the expense of those in the dark compartment”; the “proportion of time spent in the lighted area” value is “increased, in a dose-dependent manner, the proportion of time the mice spent in the larger, lighted area”; the “sedation: total numbers” value is given as “did not decrease significantly showing that the drug was not sedative at this level”.

Regarding `N=C(Nc1ccc(F)cc1C(F)(F)F)NC12CC3CC(CC(C3)C1)C2` [N-(Adamantan-1-yl)-N'-(2-trifluoromethyl-4-fluorophenyl)guanidine], the IC50 in data set [1] (setting [10]) was 4 nM; in data set [1] (setting [11]) it was 4.27 nM; in data set [2], 31900 nM.

With `NCCc1ccc(O)c(O)c1` [dopamine, reference compound], the “displacement of [3H]DTG” value in [1] is recorded as “no significant displacement”. Further, the “effect on [3H]AZ-DTG labeling” value in [6] is on record as “unaffected”.

On to `Cc1ccccc1NC(=N)NC12CC3CC(CC(C3)C1)C2` [AdTG, N-(Adamantan-1-yl)-N'-(2-methylphenyl)guanidine], for which the “in vitro [3H]DTG displacement activity” value in data set [1] was “found to possess the aforesaid in vitro [^3 H]DTG displacement activity”. In [1] (setting [12]), the IC50 came out at 7.6 ± 0.3 nM. The IC50 in data set [1] (setting [10]) is 7.6 nM. Further, the IC50 in data set [1] (read-out: IC50, [3H]DTG displacement in guinea-pig brain homogenates, most potent, n=6) worked out at 2.6 ± 0.6 nM. Besides, in data set [1] (setting [13]), the IC50 turned out to be 3 ± 1 nM. Further, in data set [9] (0.1 mg/kg vs 1 mg/kg diazepam), the “dose giving about the same result, relative to diazepam” value is on record as “about the same result at one-tenth the dose of diazepam”. Moreover, in data set [9] (i.p., 10 min session, n=6, P<0.001), the “time spent in social interaction” value is “significantly increased social interactions”. Besides, in data set [5] (oral), the “numbers … (vs dark)” value is given as “increased at the expense of those in the dark compartment” and the “proportion of time in light area / percentage of time in black compartment” value was “increased significantly the proportion of time the mice spent in the larger, lighted area”. Also, the anxiolytic activity result in data set [5] (oral, 1 mg/kg) is listed as “have anxiolytic activity when orally administered”. In data set [5] (s.c.), the “latency to entering the dark compartment” value is “increased in a dose-dependent manner”; the “numbers … (vs dark)” value is “increased at the expense of those in the dark compartment”; the “proportion of time spent in the lighted area” value is on record as “dose dependently increased the proportion of time the mice spent in the larger, lighted area”; the “sedation: total numbers” value is “did not decrease significantly showing that the drug was not sedative at this level”.

Regarding `CCCN1CCC[C@@H](c2cccc(O)c2)C1` [(-)3-PPP, reference compound], the IC50 in data set [1] (setting [12]) turned out to be 280 ± 21 nM; in data set [1] (read-out: IC50 vs. [3H]DTG, Table III, ± SEM, average from 2-4 separate experiments in triplicate) it was 280 ± 21 nM; in [7], 235 nM.
